From ChEMBL document CHEMBL4196112, “Design of Selective sPLA2-X Inhibitor (-)-2-{2-[Carbamoyl-6-(trifluoromethoxy)-1H-indol-1-yl]pyridine-2-yl}propanoic Acid” (ACS Med Chem Lett, 2018)
In brackets after ≈: the same amount, converted by molar mass.

Key:
Mus musculus [1] = assay: Unbound clearance in C57Bl/6J mouse at 10 umol/kg, iv or 50 umol/kg, po; assay type: ADME, organism-based; details: in vivo
Cytochrome P450 2C19 = Cytochrome P450 2C19 (Homo sapiens, UniProt P33261); assay: Inhibition of recombinant human CYP2C19; assay type: ADME
Chain of Cytochrome P450 2C19 (P33261 whole entry): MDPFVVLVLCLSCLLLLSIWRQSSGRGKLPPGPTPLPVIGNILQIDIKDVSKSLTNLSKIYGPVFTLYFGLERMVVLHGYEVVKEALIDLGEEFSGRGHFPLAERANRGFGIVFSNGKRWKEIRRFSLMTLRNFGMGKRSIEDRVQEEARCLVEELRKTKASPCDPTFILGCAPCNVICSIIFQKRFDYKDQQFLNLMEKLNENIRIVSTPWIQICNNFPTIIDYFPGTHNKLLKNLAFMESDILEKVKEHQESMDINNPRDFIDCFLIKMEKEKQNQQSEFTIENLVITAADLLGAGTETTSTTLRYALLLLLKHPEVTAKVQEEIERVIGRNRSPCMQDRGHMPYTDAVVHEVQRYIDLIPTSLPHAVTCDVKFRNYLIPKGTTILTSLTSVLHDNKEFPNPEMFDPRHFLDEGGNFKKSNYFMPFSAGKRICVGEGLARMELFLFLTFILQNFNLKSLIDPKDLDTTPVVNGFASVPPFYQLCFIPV

Mus musculus [2] = assay: Unbound clearance in C57Bl/6J mouse administered iv or po; assay type: ADME, organism-based; details: in vivo
[3] = target: T1, Phospholipase A2, membrane associated (Homo sapiens, UniProt P14555); assay: Inhibition of sPLA2-2A (unknown origin) using 1-palmitoyl-2-oleoyl-sn-glycero-3-phosphocholine as substrate pretreated for 20 mins followed by substrate addition and measured after 60 mins by NEFA based assay
T1 sequence (P14555 whole entry): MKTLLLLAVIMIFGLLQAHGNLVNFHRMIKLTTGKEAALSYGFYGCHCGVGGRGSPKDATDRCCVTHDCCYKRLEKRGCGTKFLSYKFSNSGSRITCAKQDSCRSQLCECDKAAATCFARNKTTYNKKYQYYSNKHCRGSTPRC

[4] = Ratio of free drug level in ApoE knockout pro-atherogenic western diet-induced Tac mouse at 75 umol/kg measured after 1 week to IC50 for recombinant human sPLA2-10 using human HDL as substrate; assay type: ADME; details: in vivo, 168 h
Mus musculus [5] = assay: Toxicity in ApoE knockout pro-atherogenic western diet-induced Tac mouse carotid artery ligation model of atherosclerosis assessed as histopathological changes in liver at 75 to 150 umol/kg/day mixed with food measured for 3 weeks by hematoxylin-eosin staining based assay; assay type: organism-based; details: in vivo, po, 504 h
[6] = target: T2, Group 10 secretory phospholipase A2 (Homo sapiens, UniProt O15496); assay: Inhibition of sPLA2-10 (unknown origin) using 1-palmitoyl-2-oleoyl-sn-glycero-3-phosphocholine as substrate pretreated for 20 mins followed by substrate addition and measured after 60 mins by NEFA based assay
T2 sequence (O15496 whole entry): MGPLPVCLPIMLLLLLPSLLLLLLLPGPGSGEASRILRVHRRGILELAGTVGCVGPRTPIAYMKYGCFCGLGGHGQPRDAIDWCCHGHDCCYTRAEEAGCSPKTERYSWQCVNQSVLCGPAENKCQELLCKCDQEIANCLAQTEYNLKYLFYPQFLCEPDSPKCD

[7] = Ratio of free drug level in ApoE knockout pro-atherogenic western diet-induced Tac mouse at 75 umol/kg measured after 3 weeks to IC50 for recombinant human sPLA2-10 using human HDL as substrate; assay type: ADME; details: in vivo, 504 h
Mus musculus [8] = assay: Toxicity in ApoE knockout pro-atherogenic western diet-induced Tac mouse carotid artery ligation model of atherosclerosis assessed as histopathological changes in lung at 75 to 150 umol/kg/day mixed with food measured for 3 weeks by hematoxylin-eosin staining based assay; assay type: organism-based; details: in vivo, po, 504 h
Cytochrome P450 3A4 = Cytochrome P450 3A4 (Homo sapiens, UniProt P08684); assay: Inhibition of recombinant human CYP3A4; assay type: ADME
Chain of Cytochrome P450 3A4 (P08684 whole entry): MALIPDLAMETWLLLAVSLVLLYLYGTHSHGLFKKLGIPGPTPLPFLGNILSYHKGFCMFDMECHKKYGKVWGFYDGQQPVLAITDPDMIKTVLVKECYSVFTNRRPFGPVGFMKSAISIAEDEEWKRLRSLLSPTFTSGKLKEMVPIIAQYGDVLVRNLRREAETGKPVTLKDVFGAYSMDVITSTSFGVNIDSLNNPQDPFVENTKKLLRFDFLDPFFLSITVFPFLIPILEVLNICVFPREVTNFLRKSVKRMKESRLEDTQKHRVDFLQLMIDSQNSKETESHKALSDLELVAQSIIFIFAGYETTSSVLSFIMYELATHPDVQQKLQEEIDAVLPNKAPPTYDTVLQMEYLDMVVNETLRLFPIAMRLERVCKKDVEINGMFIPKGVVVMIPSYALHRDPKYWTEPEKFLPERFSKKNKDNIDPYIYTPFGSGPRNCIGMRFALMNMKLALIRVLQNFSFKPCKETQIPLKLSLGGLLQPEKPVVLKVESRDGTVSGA

[9] = target: Group 10 secretory phospholipase A2 (Mus musculus, UniProt Q9QXX3); assay: Inhibition of mouse sPLA2-10
Chain of Group 10 secretory phospholipase A2 (Mus musculus, UniProt Q9QXX3) (Q9QXX3 whole entry): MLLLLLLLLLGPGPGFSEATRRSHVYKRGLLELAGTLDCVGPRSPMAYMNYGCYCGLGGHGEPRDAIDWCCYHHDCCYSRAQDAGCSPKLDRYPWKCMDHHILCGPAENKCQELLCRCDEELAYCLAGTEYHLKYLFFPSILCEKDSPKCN

[10] = target: Voltage-gated inwardly rectifying potassium channel KCNH2 (Homo sapiens, UniProt Q12809); assay: Inhibition of human ERG expressed in CHO cells by ionworks patch clamp assay; assay type: cell-based
Phospholipase A2 group V = target: T3, Phospholipase A2 group V (Homo sapiens, UniProt P39877); assay: Inhibition of sPLA2-5 (unknown origin) using 1-palmitoyl-2-oleoyl-sn-glycero-3-phosphocholine as substrate pretreated for 20 mins followed by substrate addition and measured after 60 mins by NEFA based assay
T3 sequence (P39877 whole entry): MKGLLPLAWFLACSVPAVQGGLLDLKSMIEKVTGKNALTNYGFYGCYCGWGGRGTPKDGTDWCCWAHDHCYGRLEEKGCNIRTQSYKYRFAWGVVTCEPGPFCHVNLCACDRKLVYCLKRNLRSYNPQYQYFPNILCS

Mus musculus [11] = assay: Toxicity in ApoE knockout pro-atherogenic western diet-induced Tac mouse carotid artery ligation model of atherosclerosis assessed as reduction in body weight at 75 to 150 umol/kg/day mixed with food measured for 3 weeks; assay type: organism-based; details: in vivo, po, 504 h
[12] = target: Sodium channel protein type 5 subunit alpha (Homo sapiens, UniProt Q14524); assay: Inhibition of human Nav1.5 expressed in CHO cells by ionworks patch clamp assay; assay type: cell-based
Cytochrome P450 2C8 = Cytochrome P450 2C8 (Homo sapiens, UniProt P10632); assay: Inhibition of recombinant human CYP2C8; assay type: ADME
Chain of Cytochrome P450 2C8 (P10632 whole entry): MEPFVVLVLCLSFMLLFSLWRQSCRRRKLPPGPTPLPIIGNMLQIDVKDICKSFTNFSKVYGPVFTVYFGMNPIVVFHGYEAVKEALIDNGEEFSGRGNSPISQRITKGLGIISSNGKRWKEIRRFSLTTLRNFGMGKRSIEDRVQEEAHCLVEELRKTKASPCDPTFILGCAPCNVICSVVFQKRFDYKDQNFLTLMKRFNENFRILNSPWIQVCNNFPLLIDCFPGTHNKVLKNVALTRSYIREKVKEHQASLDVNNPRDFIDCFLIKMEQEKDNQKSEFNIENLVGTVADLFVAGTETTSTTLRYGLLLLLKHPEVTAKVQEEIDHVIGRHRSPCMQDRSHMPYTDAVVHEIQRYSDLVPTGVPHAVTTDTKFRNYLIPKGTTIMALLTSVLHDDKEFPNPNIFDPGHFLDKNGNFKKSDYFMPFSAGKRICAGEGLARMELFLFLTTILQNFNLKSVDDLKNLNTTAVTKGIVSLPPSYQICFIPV

[13] = target: T2, Group 10 secretory phospholipase A2; assay: Inhibition of recombinant human sPLA2-10 using human HDL as substrate pretreated for 20 mins followed by substrate addition and measured after 60 mins by NEFA based assay
[14] = target: Voltage-dependent T-type calcium channel subunit alpha-1H (Homo sapiens, UniProt O95180); assay: Inhibition of human Cav3.2 expressed in CHO cells by ionworks patch clamp assay; assay type: cell-based
[15] = Volume of distribution at steady state in C57Bl/6J mouse at 10 umol/kg, iv or 50 umol/kg, po; assay type: ADME, organism-based; details: in vivo, read-out: Vdss
[16] = target: Voltage-dependent L-type calcium channel subunit alpha-1C (Homo sapiens, UniProt Q13936); assay: Inhibition of human Cav1.2 expressed in CHO cells by ionworks patch clamp assay; assay type: cell-based
Chain of Voltage-dependent L-type calcium channel subunit alpha-1C (Q13936 whole entry): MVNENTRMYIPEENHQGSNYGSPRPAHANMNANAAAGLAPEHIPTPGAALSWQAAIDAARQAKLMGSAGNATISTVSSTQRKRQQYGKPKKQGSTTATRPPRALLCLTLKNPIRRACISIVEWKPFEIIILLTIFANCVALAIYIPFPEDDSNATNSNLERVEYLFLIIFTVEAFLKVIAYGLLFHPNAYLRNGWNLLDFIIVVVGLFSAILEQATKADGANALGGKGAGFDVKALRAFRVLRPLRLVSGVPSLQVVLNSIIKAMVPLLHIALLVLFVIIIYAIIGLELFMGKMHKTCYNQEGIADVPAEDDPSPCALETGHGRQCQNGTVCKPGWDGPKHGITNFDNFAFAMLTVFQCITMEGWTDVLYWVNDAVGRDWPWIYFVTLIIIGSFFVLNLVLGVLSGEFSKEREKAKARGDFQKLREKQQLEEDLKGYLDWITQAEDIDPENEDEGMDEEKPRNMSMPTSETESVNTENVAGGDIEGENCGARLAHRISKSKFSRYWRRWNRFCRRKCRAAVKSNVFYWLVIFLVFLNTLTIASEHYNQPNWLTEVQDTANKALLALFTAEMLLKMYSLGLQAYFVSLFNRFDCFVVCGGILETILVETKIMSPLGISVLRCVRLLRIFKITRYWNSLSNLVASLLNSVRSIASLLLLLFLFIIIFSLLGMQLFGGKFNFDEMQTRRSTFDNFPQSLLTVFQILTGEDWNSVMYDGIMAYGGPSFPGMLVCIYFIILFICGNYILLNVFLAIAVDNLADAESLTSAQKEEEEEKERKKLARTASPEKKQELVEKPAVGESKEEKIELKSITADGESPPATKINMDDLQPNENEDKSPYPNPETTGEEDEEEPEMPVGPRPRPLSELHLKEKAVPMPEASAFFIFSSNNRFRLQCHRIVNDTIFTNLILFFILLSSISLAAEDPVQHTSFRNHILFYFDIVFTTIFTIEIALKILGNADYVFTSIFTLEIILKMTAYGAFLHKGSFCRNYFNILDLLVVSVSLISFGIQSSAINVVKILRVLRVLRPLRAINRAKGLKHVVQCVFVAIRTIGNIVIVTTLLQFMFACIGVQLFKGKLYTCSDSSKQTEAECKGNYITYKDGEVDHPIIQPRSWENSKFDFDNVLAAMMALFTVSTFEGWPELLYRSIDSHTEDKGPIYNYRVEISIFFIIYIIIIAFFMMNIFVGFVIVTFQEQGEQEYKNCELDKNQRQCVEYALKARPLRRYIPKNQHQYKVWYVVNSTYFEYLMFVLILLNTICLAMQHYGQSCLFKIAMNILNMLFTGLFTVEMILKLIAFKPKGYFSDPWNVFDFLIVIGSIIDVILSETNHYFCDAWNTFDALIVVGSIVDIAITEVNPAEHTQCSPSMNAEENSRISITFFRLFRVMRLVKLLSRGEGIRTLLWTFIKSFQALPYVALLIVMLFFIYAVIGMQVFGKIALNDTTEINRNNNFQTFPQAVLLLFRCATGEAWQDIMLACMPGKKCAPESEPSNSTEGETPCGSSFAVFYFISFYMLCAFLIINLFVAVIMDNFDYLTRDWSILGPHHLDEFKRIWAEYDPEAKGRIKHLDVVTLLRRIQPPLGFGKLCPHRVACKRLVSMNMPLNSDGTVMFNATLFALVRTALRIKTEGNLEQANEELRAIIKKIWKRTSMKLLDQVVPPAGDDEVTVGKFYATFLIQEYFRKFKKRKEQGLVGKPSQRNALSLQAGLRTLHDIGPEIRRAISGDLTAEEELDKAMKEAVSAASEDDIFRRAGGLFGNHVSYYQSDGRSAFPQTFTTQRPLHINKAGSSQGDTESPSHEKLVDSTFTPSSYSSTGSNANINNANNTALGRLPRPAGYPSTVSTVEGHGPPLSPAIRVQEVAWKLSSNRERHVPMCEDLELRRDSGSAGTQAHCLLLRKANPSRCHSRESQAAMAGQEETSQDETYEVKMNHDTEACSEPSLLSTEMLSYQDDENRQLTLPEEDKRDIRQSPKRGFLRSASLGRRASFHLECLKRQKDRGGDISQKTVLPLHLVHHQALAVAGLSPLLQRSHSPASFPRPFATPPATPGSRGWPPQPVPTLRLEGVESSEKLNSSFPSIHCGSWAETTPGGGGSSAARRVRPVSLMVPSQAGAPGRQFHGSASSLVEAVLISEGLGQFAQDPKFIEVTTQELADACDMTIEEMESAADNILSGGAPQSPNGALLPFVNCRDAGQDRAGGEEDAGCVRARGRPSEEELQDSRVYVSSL

[17] = Inhibition of human Iks expressed in CHO cells by ionworks patch clamp assay; assay type: cell-based
[18] = Apparent permeability in human Caco2 cells; assay type: ADME, cell-based; details: Caco-2
[19] = Ratio of free drug level in ApoE knockout pro-atherogenic western diet-induced Tac mouse at 150 umol/kg measured after 3 weeks to IC90 for recombinant human sPLA2-10 using human HDL as substrate; assay type: ADME; details: in vivo, 504 h
[20] = Drug metabolism in human liver microsomes in presence of glutathione after 30 mins; assay type: ADME, microsome; details: 0.5 h
Mus musculus [21] = assay: Toxicity in ApoE knockout pro-atherogenic western diet-induced Tac mouse carotid artery ligation model of atherosclerosis assessed as histopathological changes in duodenum at 75 to 150 umol/kg/day mixed with food measured for 3 weeks by hematoxylin-eosin staining based assay; assay type: organism-based; details: in vivo, po, 504 h
[22] = Lipophilicity, log D of compound at pH 7.4; details: buffer
Mus musculus [23] = assay: Toxicity in ApoE knockout pro-atherogenic western diet-induced Tac mouse carotid artery ligation model of atherosclerosis assessed as histopathological changes in ceacum at 75 to 150 umol/kg/day mixed with food measured for 3 weeks by hematoxylin-eosin staining based assay; assay type: organism-based; details: in vivo, po, 504 h
[24] = Oral bioavailability in C57Bl/6J mouse at 50 umol/kg; assay type: ADME, organism-based; details: in vivo
Cytochrome P450 1A2 = Cytochrome P450 1A2 (Homo sapiens, UniProt P05177); assay: Inhibition of recombinant human CYP1A2; assay type: ADME
[25] = Fraction unbound in C57Bl/6J mouse plasma; assay type: ADME, cell-free
Mus musculus [26] = assay: Toxicity in ApoE knockout pro-atherogenic western diet-induced Tac mouse carotid artery ligation model of atherosclerosis assessed as histopathological changes in heart at 75 to 150 umol/kg/day mixed with food measured for 3 weeks by hematoxylin-eosin staining based assay; assay type: organism-based; details: in vivo, po, 504 h
[27] = Solubility of the compound in DMSO/HBSS solution at pH 7.4 after 24 hrs by LC-UV/MS analysis; assay type: physicochemical
Mus musculus [28] = assay: Toxicity in ApoE knockout pro-atherogenic western diet-induced Tac mouse carotid artery ligation model of atherosclerosis assessed as histopathological changes in stomach at 75 to 150 umol/kg/day mixed with food measured for 3 weeks by hematoxylin-eosin staining based assay; assay type: organism-based; details: in vivo, po, 504 h
Mus musculus [29] = assay: Toxicity in ApoE knockout pro-atherogenic western diet-induced Tac mouse carotid artery ligation model of atherosclerosis assessed as histopathological changes in intestine at 75 to 150 umol/kg/day mixed with food measured for 3 weeks by hematoxylin-eosin staining based assay; assay type: organism-based; details: in vivo, po, 504 h
[30] = Half life in human hepatocytes; assay type: ADME, cell-based, Hepatocyte
Cytochrome P450 2D6 = Cytochrome P450 2D6 (Homo sapiens, UniProt P10635); assay: Inhibition of recombinant human CYP2D6; assay type: ADME
Chain of Cytochrome P450 2D6 (P10635 whole entry): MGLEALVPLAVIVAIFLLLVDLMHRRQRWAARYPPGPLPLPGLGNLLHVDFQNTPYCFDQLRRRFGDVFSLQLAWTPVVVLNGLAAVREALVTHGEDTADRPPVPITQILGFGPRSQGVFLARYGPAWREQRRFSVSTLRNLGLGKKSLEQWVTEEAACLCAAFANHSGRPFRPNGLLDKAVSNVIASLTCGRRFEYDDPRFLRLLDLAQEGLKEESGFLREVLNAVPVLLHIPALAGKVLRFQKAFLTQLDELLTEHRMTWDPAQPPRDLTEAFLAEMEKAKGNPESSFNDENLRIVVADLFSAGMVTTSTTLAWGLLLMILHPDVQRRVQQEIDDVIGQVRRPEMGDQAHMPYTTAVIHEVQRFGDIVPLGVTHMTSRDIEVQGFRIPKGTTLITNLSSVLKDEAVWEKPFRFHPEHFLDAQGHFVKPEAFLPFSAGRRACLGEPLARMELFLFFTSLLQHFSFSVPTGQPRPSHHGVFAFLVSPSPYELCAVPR

Mus musculus [31] = assay: Toxicity in ApoE knockout pro-atherogenic western diet-induced Tac mouse carotid artery ligation model of atherosclerosis assessed as histopathological changes in kidney at 75 to 150 umol/kg/day mixed with food measured for 3 weeks by hematoxylin-eosin staining based assay; assay type: organism-based; details: in vivo, po, 504 h
[32] = target: A-type voltage-gated potassium channel KCND3 (Homo sapiens, UniProt Q9UK17); assay: Inhibition of human Kv4.3 expressed in CHO cells by ionworks patch clamp assay; assay type: cell-based
[33] = Ratio of free drug level in ApoE knockout pro-atherogenic western diet-induced Tac mouse at 150 umol/kg measured after 1 week to IC90 for recombinant human sPLA2-10 using human HDL as substrate; assay type: ADME; details: in vivo, 168 h
Cytochrome P450 2C9 = Cytochrome P450 2C9 (Homo sapiens, UniProt P11712); assay: Inhibition of recombinant human CYP2C9; assay type: ADME
Chain of Cytochrome P450 2C9 (P11712 whole entry): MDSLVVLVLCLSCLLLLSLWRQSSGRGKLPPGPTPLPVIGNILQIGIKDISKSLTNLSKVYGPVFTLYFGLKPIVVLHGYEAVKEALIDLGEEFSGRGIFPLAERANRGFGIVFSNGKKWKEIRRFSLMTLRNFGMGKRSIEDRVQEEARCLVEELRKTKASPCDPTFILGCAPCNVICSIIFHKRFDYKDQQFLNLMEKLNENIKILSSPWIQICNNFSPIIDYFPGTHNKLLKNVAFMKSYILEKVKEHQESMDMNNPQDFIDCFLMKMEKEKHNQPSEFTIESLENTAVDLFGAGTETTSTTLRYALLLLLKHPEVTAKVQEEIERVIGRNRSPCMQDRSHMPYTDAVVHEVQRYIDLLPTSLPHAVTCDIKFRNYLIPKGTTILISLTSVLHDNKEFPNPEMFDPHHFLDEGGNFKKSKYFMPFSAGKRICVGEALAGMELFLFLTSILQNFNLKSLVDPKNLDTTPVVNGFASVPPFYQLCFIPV

Mus musculus [34] = assay: Toxicity in ApoE knockout pro-atherogenic western diet-induced Tac mouse carotid artery ligation model of atherosclerosis assessed as effect on liver enzyme levels at 75 to 150 umol/kg/day mixed with food measured for 3 weeks; assay type: organism-based; details: in vivo, po, 504 h

CL free (Mus musculus [1]): 306 mL/min/kg | IC50 (Cytochrome P450 2C19): > 20 µM | CL free (Mus musculus [2]): 306 mL/min/kg | IC50 [3]: 0.63 µM | Ratio [4]: > 7 | IC50 [6]: 0.014 µM | Ratio [7]: > 7 | IC50 (Cytochrome P450 3A4): > 20 µM | IC50 [9]: 0.075 µM | IC50 (Phospholipase A2 group V): 5.5 µM | IC50 (Cytochrome P450 2C8): > 20 µM | IC50 [13]: 0.042 µM | IC50 [14]: > 33 µM | Vd [15]: 0.52 L/kg | IC50 [17]: > 33 µM | Papp [18]: 5.8 ×10⁻⁶ cm/s | Ratio [19]: > 7 | Drug metabolism [20]: Metabolite_Notdetected | logD [22]: 0.9 | bioavailability [24]: 95% | IC50 (Cytochrome P450 1A2): > 20 µM | fraction unbound [25]: 0.05 | solubility at 24 h [27]: 100 µM (≈ 40.7 µg/mL) | half-life [30]: > 2.88 h | IC50 (Cytochrome P450 2D6): > 20 µM | IC50 [32]: > 33 µM | Ratio [33]: > 7 | IC50 (Cytochrome P450 2C9): > 20 µM
SMILES: CC(CC(=O)O)c1cccc(-n2c(C(N)=O)cc3ccc(OC(F)(F)F)cc32)n1 (stereo in doubt; (-)-17)
Activity (Mus musculus [5]): Non-Toxic | Activity (Mus musculus [8]): Non-Toxic | IC50 [10]: > 33 µM | Activity (Mus musculus [11]): Non-Toxic | IC50 [12]: > 33 µM | IC50 [16]: > 33 µM | Activity (Mus musculus [21]): Non-Toxic | Activity (Mus musculus [23]): Non-Toxic | Activity (Mus musculus [26]): Non-Toxic | Activity (Mus musculus [28]): Non-Toxic | Activity (Mus musculus [29]): Non-Toxic | Activity (Mus musculus [31]): Non-Toxic | Activity (Mus musculus [34]): Non-Toxic
